According to ChEMBL document CHEMBL1148670, “Keto-1,3,4-oxadiazoles as cathepsin K inhibitors” (Bioorg Med Chem Lett, 2006):

Legend:
Conditions in all cases: read-out: Ki app
Procathepsin L = Procathepsin L (Homo sapiens, UniProt P07711); test: Inhibition of human cathepsin L
Cathepsin K = target: T1, Cathepsin K (Homo sapiens, UniProt P43235); test: Inhibition of human cathepsin K
T1 sequence (P43235 whole entry): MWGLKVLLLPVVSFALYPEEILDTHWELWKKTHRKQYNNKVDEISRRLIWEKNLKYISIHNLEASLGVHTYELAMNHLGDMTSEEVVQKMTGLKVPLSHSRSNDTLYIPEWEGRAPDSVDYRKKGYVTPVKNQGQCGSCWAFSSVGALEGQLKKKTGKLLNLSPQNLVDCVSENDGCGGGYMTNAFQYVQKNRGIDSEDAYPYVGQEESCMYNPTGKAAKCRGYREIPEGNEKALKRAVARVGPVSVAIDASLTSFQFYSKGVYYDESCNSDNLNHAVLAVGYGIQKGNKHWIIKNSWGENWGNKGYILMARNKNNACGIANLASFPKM

Cathepsin S = Cathepsin S (Homo sapiens, UniProt P25774); test: Inhibition of human cathepsin S
Sequence of Cathepsin S (P25774 whole entry): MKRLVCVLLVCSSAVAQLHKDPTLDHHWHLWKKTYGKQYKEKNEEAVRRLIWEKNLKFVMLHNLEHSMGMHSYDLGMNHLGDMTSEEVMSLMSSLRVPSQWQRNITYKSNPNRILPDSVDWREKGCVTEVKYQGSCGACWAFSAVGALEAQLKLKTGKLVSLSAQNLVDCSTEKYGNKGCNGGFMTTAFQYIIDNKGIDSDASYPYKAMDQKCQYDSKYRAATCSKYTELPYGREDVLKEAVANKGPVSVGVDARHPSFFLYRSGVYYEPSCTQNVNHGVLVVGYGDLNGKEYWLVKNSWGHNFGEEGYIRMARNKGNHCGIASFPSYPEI

Cathepsin B = Cathepsin B (Homo sapiens, UniProt P07858); test: Inhibition of human cathepsin B

Sequence of Procathepsin L (P07711 whole entry): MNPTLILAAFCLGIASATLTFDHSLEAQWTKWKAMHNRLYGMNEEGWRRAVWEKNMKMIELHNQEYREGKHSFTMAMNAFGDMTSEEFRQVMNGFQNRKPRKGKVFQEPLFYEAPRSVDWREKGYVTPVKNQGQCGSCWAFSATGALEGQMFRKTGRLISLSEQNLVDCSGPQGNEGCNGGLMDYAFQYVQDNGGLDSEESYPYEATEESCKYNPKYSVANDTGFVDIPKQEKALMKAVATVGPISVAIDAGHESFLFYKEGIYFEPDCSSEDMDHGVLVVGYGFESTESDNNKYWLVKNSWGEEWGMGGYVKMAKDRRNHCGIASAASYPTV

CCC[C@H](NC(=O)[C@H](CC(C)C)C(=O)OCc1ccccc1)C(=O)c1nnc(-c2ccco2)o1
Ki (Procathepsin L): 0.001 µM
Ki (Cathepsin K): < 0.25 nM
Ki (Cathepsin S): < 0.25 nM
Ki (Cathepsin B): 0.002 µM

CCC[C@H](NC(=O)C1(NC(=O)c2ccc(OC(F)(F)F)cc2)CCCCC1)C(=O)c1nnc(-c2cccc(C(F)(F)F)c2)o1
Ki (Procathepsin L): 1.4 µM
Ki (Cathepsin K): 54 nM
Ki (Cathepsin S): 3300 nM
Ki (Cathepsin B): 1.1 µM

CCC[C@H](NC(=O)C1(NC(=O)c2ccc(OC(F)(F)F)cc2)CCCCC1)C(=O)c1nnc(-c2ccc(C(F)(F)F)cc2)o1
Ki (Procathepsin L): 11 µM
Ki (Cathepsin K): 550 nM
Ki (Cathepsin S): 13000 nM
Ki (Cathepsin B): 23 µM

CCC[C@H](NC(=O)C1(NC(=O)c2ccc(OC(F)(F)F)cc2)CCCCC1)C(=O)c1nnc(-c2cccs2)o1
Ki (Procathepsin L): 2.9 µM
Ki (Cathepsin K): 5.2 nM
Ki (Cathepsin S): 760 nM
Ki (Cathepsin B): 0.27 µM

CCC[C@H](NC(=O)C1(NC(=O)c2ccc(OC(F)(F)F)cc2)CCCCC1)C(=O)c1nnc(C(C)(C)C)o1
Ki (Procathepsin L): 10 µM
Ki (Cathepsin K): 1300 nM
Ki (Cathepsin S): 17000 nM
Ki (Cathepsin B): 10 µM

CCC[C@H](NC(=O)C1(NC(=O)c2ccc(OC(F)(F)F)cc2)CCCCC1)C(=O)c1nnc(-c2ccco2)o1
Ki (Procathepsin L): 1 µM
Ki (Cathepsin K): 1.7 nM
Ki (Cathepsin S): 350 nM
Ki (Cathepsin B): 0.22 µM

CCC[C@H](NC(=O)C1(NC(=O)OC(C)(C)C)CCCCC1)C(=O)c1nnc(-c2ccco2)o1
Ki (Procathepsin L): 18 µM
Ki (Cathepsin K): 43 nM
Ki (Cathepsin S): 960 nM
Ki (Cathepsin B): 7.3 µM

CCC[C@H](NC(=O)C1(NC(=O)c2ccc(N(C)C)cc2)CCCCC1)C(=O)c1nnc(-c2ccco2)o1
Ki (Procathepsin L): 0.96 µM
Ki (Cathepsin K): 0.95 nM
Ki (Cathepsin S): 700 nM
Ki (Cathepsin B): 0.73 µM

CCC[C@H](NC(=O)Cc1ccccc1)C(=O)c1nnc(-c2ccco2)o1
Ki (Procathepsin L): 150 µM
Ki (Cathepsin K): 52000 nM
Ki (Cathepsin S): 9200 nM
Ki (Cathepsin B): 110 µM

CCC[C@H](NC(=O)OC(C)(C)C)C(=O)c1nnc(C(C)C)o1
Ki (Procathepsin L): > 150 µM
Ki (Cathepsin K): 5600 nM
Ki (Cathepsin S): 130000 nM
Ki (Cathepsin B): > 150 µM

CCC[C@H](NC(=O)C1(NC(=O)c2ccc(OC(F)(F)F)cc2)CCCCC1)C(=O)c1nnc(-c2ccc(OC)cc2)o1
Ki (Procathepsin L): 37 µM
Ki (Cathepsin K): 22 nM
Ki (Cathepsin S): 20000 nM
Ki (Cathepsin B): 57 µM

CCC[C@H](NC(=O)OC(C)(C)C)C(=O)c1nnc(-c2cccs2)o1
Ki (Procathepsin L): 63 µM
Ki (Cathepsin K): 810 nM
Ki (Cathepsin S): 12000 nM
Ki (Cathepsin B): 120 µM

CCC[C@H](NC(=O)OC(C)(C)C)C(=O)c1nnc(-c2ccc(N(C)C)cc2)o1
Ki (Procathepsin L): 130 µM
Ki (Cathepsin K): 33000 nM
Ki (Cathepsin S): 28000 nM
Ki (Cathepsin B): > 150 µM

CCC[C@H](NC(=O)C1(NC(=O)c2ccc(OC(F)(F)F)cc2)CCCCC1)C(=O)c1nnc(C(C)C)o1
Ki (Procathepsin L): 4.6 µM
Ki (Cathepsin K): 35 nM
Ki (Cathepsin S): 800 nM
Ki (Cathepsin B): 0.43 µM

CCC[C@H](NC(=O)[C@H](CC(C)C)NCC(F)(F)F)C(=O)c1nnc(-c2ccco2)o1
Ki (Procathepsin L): 2.1 µM
Ki (Cathepsin K): 120 nM
Ki (Cathepsin S): 240 nM
Ki (Cathepsin B): 48 µM

CCC[C@H](NC(=O)OCC(C)C)C(=O)c1nnc(-c2ccco2)o1
Ki (Procathepsin L): 14 µM
Ki (Cathepsin K): 500 nM
Ki (Cathepsin S): 380 nM
Ki (Cathepsin B): 16 µM

CCC[C@H](NC(=O)CCc1ccccc1)C(=O)c1nnc(-c2ccco2)o1
Ki (Procathepsin L): 100 µM
Ki (Cathepsin K): 9600 nM
Ki (Cathepsin S): 2600 nM
Ki (Cathepsin B): 25 µM

CCC[C@H](NC(=O)OCc1ccccc1)C(=O)c1nnc(-c2ccco2)o1
Ki (Procathepsin L): 28 µM
Ki (Cathepsin K): 3000 nM
Ki (Cathepsin S): 2000 nM
Ki (Cathepsin B): 34 µM

CCC[C@H](NC(=O)C1(NC(=O)c2ccc(OC(F)(F)F)cc2)CCCCC1)C(=O)c1nnc(-c2ccccc2)o1
Ki (Procathepsin L): 19 µM
Ki (Cathepsin K): 29 nM
Ki (Cathepsin S): 45000 nM
Ki (Cathepsin B): 73 µM

CCC[C@H](NC(=O)C1(NC(=O)c2ccc(OC(F)(F)F)cc2)CCCCC1)C(=O)c1nnc(-c2cccc(OC)c2)o1
Ki (Procathepsin L): 7.5 µM
Ki (Cathepsin K): 37 nM
Ki (Cathepsin S): 10000 nM
Ki (Cathepsin B): 2.1 µM

CCC[C@H](NC(=O)OC(C)(C)C)C(=O)c1nnc(-c2ccccc2OC)o1
Ki (Procathepsin L): > 150 µM
Ki (Cathepsin K): 17000 nM
Ki (Cathepsin S): 19000 nM
Ki (Cathepsin B): > 150 µM

CCC[C@H](NC(=O)C1(NC(=O)c2ccc(F)cc2)CCCCC1)C(=O)c1nnc(-c2ccco2)o1
Ki (Procathepsin L): 2.9 µM
Ki (Cathepsin K): 19 nM
Ki (Cathepsin S): 140 nM
Ki (Cathepsin B): 0.95 µM

CCC[C@H](NC(=O)C1(NC(=O)c2ccc(OC(F)(F)F)cc2)CCCCC1)C(=O)c1nnc(OC)o1
Ki (Procathepsin L): 0.16 µM
Ki (Cathepsin K): 3.3 nM
Ki (Cathepsin S): 320 nM
Ki (Cathepsin B): 0.093 µM

CCC[C@H](NC(=O)C1(NC(=O)c2ccc(OC(F)(F)F)cc2)CCCCC1)C(=O)c1nnc(CC)o1
Ki (Procathepsin L): 0.3 µM
Ki (Cathepsin K): 7.9 nM
Ki (Cathepsin S): 470 nM
Ki (Cathepsin B): 0.098 µM
